Experimental data: the NIST ThermoML archive (doi:10.1016/j.fluid.2005.06.022)
Numbers after ± are expanded uncertainties.

Legend:
[1] = refractive index (Na D-line) (dimensionless); settings: 101.33 kPa, Liquid, Standard Abbe refractometry
[2] = Liquid; for molar volume: 101.33 kPa

Row | SMILES | refractive index ([1]; 293.15 K) | molar volume ([2]; 293.15 K) | refractive index ([1]; 298.15 K) | molar volume ([2]; 298.15 K) | other results
1 | O=C1CCCCC1 [cyclohexanone] | 1.451 ± 0.0012 | 0.0001038 ± 5.7e-07 m3/mol |  |  | vapor or sublimation pressure ([2]; 426.35 K): 94.7 ± 4.8 kPa; vapor or sublimation pressure ([2]; 426.85 K): 94.7 ± 4.8 kPa
2 | N#Cc1cnccn1 [2-cyanopyrazine] | 1.534 ± 0.0012 | 8.952e-05 ± 5.2e-07 m3/mol |  |  | vapor or sublimation pressure ([2]; 476.05 K): 94.7 ± 4.8 kPa
3 | ClC(Cl)(Cl)Cl [tetrachloromethane] |  |  | 1.4574 ± 0.0012 | 9.708e-05 ± 6e-07 m3/mol | vapor or sublimation pressure ([2]; 347.85 K): 94.7 ± 4.8 kPa
4 | C=CC#N [acrylonitrile] |  |  | 1.3888 ± 0.0012 | 6.629e-05 ± 3.6e-07 m3/mol | vapor or sublimation pressure ([2]; 348.55 K): 94.7 ± 4.8 kPa
5 | Cc1cnccn1 [2-methylpyrazine] | 1.505 ± 0.0012 | 9.138e-05 ± 5.1e-07 m3/mol |  |  | vapor or sublimation pressure ([2]; 396.65 K): 94.7 ± 4.8 kPa
6 | C1CCCCC1 [cyclohexane] |  |  | 1.4235 ± 0.0012 | 0.0001087 ± 5.9e-07 m3/mol | vapor or sublimation pressure ([2]; 351.85 K): 94.7 ± 4.8 kPa
